Results published in patent US6469002B1, “Imidazolidine compounds” (Millennium Pharmaceuticals, Inc., priority 2001, dated 2002).

target: T1, CXCR3 (Homo sapiens, UniProt P49682); assay: CXCR3/IP-10 radioligand binding (125I-IP-10 competition, CXCR3.L1/2 cell membranes); details: Table 5; test compound 10 μmol/L; 125I-labeled IP-10 binding to CXCR3.L1/2 transfectant cell membrane
T1 construct: expressed in transfected cells
T1 sequence (P49682 1-368): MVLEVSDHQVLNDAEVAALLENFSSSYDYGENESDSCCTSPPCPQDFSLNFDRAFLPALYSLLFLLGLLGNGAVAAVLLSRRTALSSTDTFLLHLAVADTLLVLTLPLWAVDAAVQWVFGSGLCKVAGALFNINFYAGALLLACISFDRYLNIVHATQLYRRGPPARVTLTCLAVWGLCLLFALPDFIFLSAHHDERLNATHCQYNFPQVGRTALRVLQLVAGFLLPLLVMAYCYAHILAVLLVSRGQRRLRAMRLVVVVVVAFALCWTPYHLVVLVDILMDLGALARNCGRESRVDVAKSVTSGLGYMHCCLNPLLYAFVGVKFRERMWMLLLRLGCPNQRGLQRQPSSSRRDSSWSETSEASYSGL
Text: The activity of the compounds of the present invention can be assessed using a suitable assay, such as a receptor binding assay, a chemotaxis assays, an extracellular acidification assay or a calcium flux assay (see, for example, Hesselgesser et al., J. Biol. Chem. 273(25):15687-15692 (1998) and WO 98/02151). For example, as described herein, small organic molecule antagonists of CXCR3/IP-10 binding have been identified utilizing cells engineered to express recombinant human CXCR3 (CXCR3.L1/2) and which bind ^125I-IP-10 and chemotax in response to IP-10, Mig or I-TAC. Specifically, a high through-put receptor binding assay, which monitors ^125I-IP-10 binding to CXCR3.L1/2 cell membranes, was used to identify small molecule antagonists which block binding of IP-10, Mig or I-TAC to CXCR3.
CXCR3.L1/2 cells were pelleted by centrifugation and stored at −80° C. The cells were lysed by thawing and resuspending at about 1.5×10^7 cells/ml in a hypotonic buffer (5 m mol/L HEPES (pH 7.2), 2 mmol/L EDTA, 10 μg/ml each leupeptin, aprotinin, and chymostatin, and 100 μg/ml PMSF (all from Sigma, St. Louis)). Nuclei and cellular debris was removed by centrifugation ([…], at 4° C.) for 10 min. The supematant was transferred to chilled centrifuge tubes (Nalge, Rochester, N.Y.) and the membrane fraction was recovered by centrifugation (25,000 g at 4° C.) for 45 min. The membrane pellet was resuspended in freezing buffer (10 mM HEPES (pH 7.2), 300 mmol/L Sucrose, 5 μg/ml each of leupeptin, aprotinin, and chymostatin, and 10 μg/ml PMSF). The total protein concentration was determined using a coomassie blue staining protein concentration assay kit (BioRad). The membrane preparation was aliquoted and stored at −80° C. until time of use.
CXCR3/IP-10 binding was performed in 96-well polypropylene plates (Costar) in a final volume of 0.1 ml of HBB buffer (50 mmol/L Hepes pH 7.4, 1 mmol/L CaCl2, 5 mmol/L MgCl2, 0.02% sodium azide, 0.5% BSA (bovine serum albumin)) containing 1 to 5 μg of CXCR3.L1/2 transfectant cell membrane protein and 0.05 to 0.2 nmol/L ^125I-labeled IP-10 (NEN, Boston, Mass.). Competition binding experiments were performed by including variable concentrations of unlabeled IP-10 or test compound. Nonspecific binding was determined following the addition of a 250 nmol/L unlabelled IP-10. Samples were incubated for 60 min at room temperature, and bound and free tracer (^125I-IP10) were separated by filtration through 96-well GF/B filterplates (Packard) presoaked in 0.3% polyethyleneimine. The filters were washed in HBB further supplemented with 0.5 mol/L NaCl, dried, and the amount of bound radioactivity determined by liquid scintillation counting. The competition is presented as the percent specific binding as calculated by 100×[(S-B)/(T-B)], where S is the radioactivity bound for each sample, B is background binding, and T is total bound in the absence of competitors. Duplicates were used throughout the experiments.

Molecule | % inhibition at 10 μmol/L [%] | inhibition at 10 µM [%]
1-[2-{N-Ethyl-N-(4-N,N-dimethylaminomethylbenzyl)amino}ethyl]-3-(1-naphthylmethyl)-2-imidazolidinylidenepropanedinitrile [Compound 9] | 94 | –
CCN(CCN1CCN(Cc2cccc3ccccc23)C1=C(C#N)C#N)Cc1ccc(CN2CCCCC2)cc1 [Compound 2, 1-[2-{N-Ethyl-N-(4-piperidinomethylbenzyl)amino}ethyl]-3-(1-naphthylmethyl)-2-imidazolidinylidenepropanedinitrile] | 96 | –
CCN(CCN1CCN(Cc2cccc3ccccc23)C1=C(C#N)C#N)Cc1ccc(OCCN2CCCC2)cc1 [Compound 4, 1-[2-{N-Ethyl-N-{4-(2-(1-pyrrolidinyl)ethoxy)benzyl}amino}ethyl]-3-(1-naphthylmethyl)-2-imidazolidinylidenepropanedinitrile] | 76 | –
CN(CCN1CCN(Cc2cccc3ccccc23)C1=C(C#N)C#N)Cc1ccc(CN2CCCCC2)cc1 [Compound 5, 1-[2-{N-Methyl-N-(4-piperidinomethylbenzyl)amino}ethyl]-3-(1-naphthylmethyl)-2-imidazolidinylidenepropanedinitrile] | 99 | –
CN(CCN1CCN(Cc2cccc3ccccc23)C1=C(C#N)C#N)Cc1cccc(CN2CCCCC2)c1 [Compound 6, 1-[2-{N-Methyl-N-(3-piperidinomethylbenzyl)amino}ethyl]-3-(1-naphthylmethyl)-2-imidazolidinylidenepropanedinitrile] | 99 | –
CCN(CCN1CCN(Cc2cccc3ccccc23)C1=C(C#N)C#N)Cc1ccc(CN2CCOCC2)cc1 [Compound 7, 1-[2-{N-Ethyl-N-(4-morpholinomethylbenzyl)amino}ethyl]-3-(1-naphthylmethyl)-2-imidazolidinylidenepropanedinitrile] | 92 | –
CCN(CCN1CCN(Cc2cccc3ccccc23)C1=C(C#N)C#N)Cc1ccc(CN2CCN(C)CC2)cc1 [Compound 8, 1-[2-{N-Ethyl-N-(4-(4-methylpiperazinyl)methylbenzyl)amino}ethyl]-3-(1-naphthylmethyl)-2-imidazolidinylidenepropanedinitrile] | 86 | –
CCCNCc1ccc(CN(CC)CCN2CCN(Cc3cccc4ccccc34)C2=C(C#N)C#N)cc1 [Compound 10, 1-[2-{N-Ethyl-N-(4-(N-propylamino)methylbenzyl)amino}ethyl]-3-(1-naphthylmethyl)-2-imidazolidinylidenepropanedinitrile] | 100 | –
CCN(CCN1CCN(Cc2cccc3ccccc23)C1=C(C#N)C#N)Cc1ccc(CN2CCN(CCO)CC2)cc1 [Compound 11, 1-[2-{N-Ethyl-(4-(4-(2-hydroxyethyl)piperazinyl)methylbenzyl)amino}ethyl]-3-(1-naphthylmethyl)-2-imidazolidinylidenepropanedinitrile] | 91 | –
CC(=O)N(CCN1CCN(Cc2cccc3ccccc23)C1=C(C#N)C#N)Cc1cccc(CN2CCCCC2)c1 [Compound 12, 1-[2-{N-Acetyl-N-(3-piperidinomethylbenzyl)amino}ethyl]-3-(1-naphthylmethyl)-2-imidazolidinylidenepropanedinitrile] | 76 | –
N#CC(C#N)=C1N(CCN(Cc2cccc(CN3CCCCC3)c2)C(=O)c2ccccc2)CCN1Cc1cccc2ccccc12 [Compound 13, 1-[2-{N-Benzoyl-N-(3-piperidinomethylbenzyl)amino}ethyl]-3-(1-naphthylmethyl)-2-imidazolidinylidenepropanedinitrile] | 61 | –
N#CC(C#N)=C1N(CCN(Cc2cccc(CN3CCCCC3)c2)C(=O)c2ccco2)CCN1Cc1cccc2ccccc12 [Compound 14, 1-[2-{N-Furoyl-N-(3-piperidinomethylbenzyl)amino}ethyl]-3-(1-naphthylmethyl)-2-imidazolidinylidenepropanedinitrile] | 85 | –
N#CC(C#N)=C1N(CCN(Cc2cccc(CN3CCCCC3)c2)C(=O)c2cccs2)CCN1Cc1cccc2ccccc12 [Compound 15, 1-[2-{N-(2-Thiophenecarbonyl)-N-(3-piperidinomethylbenzyl)amino}ethyl]-3-(1-naphthylmethyl)-2-imidazolidinylidenepropanedinitrile] | 71 | –
CS(=O)(=O)N(CCN1CCN(Cc2cccc3ccccc23)C1=C(C#N)C#N)Cc1cccc(CN2CCCCC2)c1 [Compound 16, 1-[2-{N-Methanesulfonyl-N-(3-piperidinomethylbenzyl)amino}ethyl]-3-(1-naphthylmethyl)-2-imidazolidinylidenepropanedinitrile] | 89 | –
CCN(CCN1CCN(Cc2cccc3ccccc23)C1=C(C#N)C#N)Cc1cccc(CN2CCCCC2)c1 [Compound 17, 1-[2-{N-Ethyl-N-(3-piperidinomethylbenzyl)amino}ethyl]-3-(1-naphthylmethyl)-2-imidazolidinylidenepropanedinitrile] | – | 96
N#CC(C#N)=C1N(CCN(Cc2ccccc2)Cc2cccc(CN3CCCCC3)c2)CCN1Cc1cccc2ccccc12 [Compound 18, 1-[2-{N-Benzyl-N-(3-piperidinomethylbenzyl)amino}ethyl]-3-(1-naphthylmethyl)-2-imidazolidinylidenepropanedinitrile] | 67 | –
N#CC(C#N)=C1N(CCN(Cc2cccc(CN3CCCCC3)c2)Cc2cccc(CN3CCCCC3)c2)CCN1Cc1cccc2ccccc12 [Compound 19, 1-[2-{N,N-Bis(3-piperidinomethylbenzyl)amino}ethyl]-3-(1-naphthylmethyl)-2-imidazolidinylidenepropanedinitrile] | 68 | –
N#CC(C#N)=C1N(CCCNCc2ccc(CN3CCCCC3)cc2)CCN1Cc1cccc2ccccc12 [Compound 20, 1-[2-{N-(4-(1-Piperidinomethyl)benzyl)amino}propyl]-3-(1-naphthylmethyl)-2-imidazolidinylidenepropanedinitrile] | – | 74
CCCNCc1ccc(CN(CC)CCN2CCN(Cc3cc(C)cc(C)c3)C2=C(C#N)C#N)cc1 [Compound 21, 1-[2-{N-Ethyl-N-(4-(1-propylaminomethyl)benzyl)amino}ethyl]-3-(3,5-dimethylbenzyl)-2-imidazolidinylidenepropanedinitrile] | – | 99

same assay, conditions: Table 6; test compound 10 μmol/L; 125I-labeled IP-10 binding to CXCR3.L1/2 transfectant cell membrane

Molecule | inhibition at 10 µM [%]
CCCNCc1ccc(CNCCN2CCN(Cc3cc(C)cc(C)c3)C2=C(C#N)C#N)cc1 [Compound 22, 1-[2-{N-(4-(1-Propylaminomethyl)benzyl)amino}ethyl]-3-(3,5-dimethylbenzyl)-2-imidazolidinylidenepropanedinitrile] | 92
CCN(CCN1CCN(Cc2cc(C)cc(C)c2)C1=C(C#N)C#N)Cc1ccc(CN2CCCCC2)cc1 [Compound 23, 1-[2-{N-Ethyl-N-(4-(1-piperidinomethyl)benzyl)amino}ethyl]-3-(3,5-dimethylbenzyl)-2-imidazolidinylidenepropanedinitrile] | 97
CCN(CCN1CCN(Cc2cc(Cl)cc(Cl)c2)C1=C(C#N)C#N)Cc1ccc(CN2CCCCC2)cc1 [Compound 24, 1-[2-{N-Ethyl-N-(4-(1-piperidinomethyl)benzyl)amino}ethyl]-3-(3,5-dichlorobenzyl)-2-imidazolidinylidenepropanedinitrile] | 91
